# System: P12-Ichikawa
# Assay: cell viability relative to DMSO control; higher = less cytotoxic
# Details: 48 h
# Outline: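 Three leukemia lines were tested: NOMO1 and SEM at 500 cells/well and P12-Ichikawa at 1000 cells/well. Each was adapted for at least four passages in each medium and seeded in 5 μl in 1536-well plates, and library compounds in DMSO were pin-dosed from 47 μM to 0.79 nM in 11 threefold steps. After 48 h at 37°C, CellTiter-Glo One luminescence was read. Viability is a percentage relative to DMSO wells on each plate, with cell-free wells as background.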
# [1] = HPLM + 10% dialyzed FBS, 0.000781 µM
# [2] = HPLM + 10% dialyzed FBS, 0.00234 µM
# [3] = HPLM + 10% dialyzed FBS, 0.00702 µM
# [4] = HPLM + 10% dialyzed FBS, 0.0211 µM
# [5] = HPLM + 10% dialyzed FBS, 0.0632 µM
# [6] = HPLM + 10% dialyzed FBS, 0.19 µM
# [7] = HPLM + 10% dialyzed FBS, 0.569 µM
# [8] = HPLM + 10% dialyzed FBS, 1.71 µM
# [9] = HPLM + 10% dialyzed FBS, 5.12 µM
# [10] = HPLM + 10% dialyzed FBS, 15.4 µM
# [11] = HPLM + 10% dialyzed FBS, 46.1 µM
# [12] = RPMI 5 mM glucose + 10% FBS, 0.000781 µM
# [13] = RPMI 5 mM glucose + 10% FBS, 0.00234 µM
# [14] = RPMI 5 mM glucose + 10% FBS, 0.00702 µM
# [15] = RPMI 5 mM glucose + 10% FBS, 0.0211 µM
# [16] = RPMI 5 mM glucose + 10% FBS, 0.0632 µM
# [17] = RPMI 5 mM glucose + 10% FBS, 0.19 µM
# [18] = RPMI 5 mM glucose + 10% FBS, 0.569 µM
# [19] = RPMI 5 mM glucose + 10% FBS, 1.71 µM
# [20] = RPMI 5 mM glucose + 10% FBS, 5.12 µM
# [21] = RPMI 5 mM glucose + 10% FBS, 15.4 µM
# [22] = RPMI 5 mM glucose + 10% FBS, 46.1 µM
# [23] = RPMI 5 mM glucose + 10% dialyzed FBS, 0.000781 µM
# [24] = RPMI 5 mM glucose + 10% dialyzed FBS, 0.00234 µM
# [25] = RPMI 5 mM glucose + 10% dialyzed FBS, 0.00702 µM
# [26] = RPMI 5 mM glucose + 10% dialyzed FBS, 0.0211 µM
# [27] = RPMI 5 mM glucose + 10% dialyzed FBS, 0.0632 µM
# [28] = RPMI 5 mM glucose + 10% dialyzed FBS, 0.19 µM
# [29] = RPMI 5 mM glucose + 10% dialyzed FBS, 0.569 µM
# [30] = RPMI 5 mM glucose + 10% dialyzed FBS, 1.71 µM
# [31] = RPMI 5 mM glucose + 10% dialyzed FBS, 5.12 µM
# [32] = RPMI 5 mM glucose + 10% dialyzed FBS, 15.4 µM
# [33] = RPMI 5 mM glucose + 10% dialyzed FBS, 46.1 µM
SMILES,cell viability [1] [%],cell viability [2] [%],cell viability [3] [%],cell viability [4] [%],cell viability [5] [%],cell viability [6] [%],cell viability [7] [%],cell viability [8] [%],cell viability [9] [%],cell viability [10] [%],cell viability [11] [%],cell viability [12] [%],cell viability [13] [%],cell viability [14] [%],cell viability [15] [%],cell viability [16] [%],cell viability [17] [%],cell viability [18] [%],cell viability [19] [%],cell viability [20] [%],cell viability [21] [%],cell viability [22] [%],cell viability [23] [%],cell viability [24] [%],cell viability [25] [%],cell viability [26] [%],cell viability [27] [%],cell viability [28] [%],cell viability [29] [%],cell viability [30] [%],cell viability [31] [%],cell viability [32] [%],cell viability [33] [%]
COc1ccc(C[C@@H](C)[C@@H](C)Cc2ccc(OC)c(OC)c2)cc1OC,92.6,105,102,110,99.4,102,97.7,83,6.15,5.92,2.61,97,103,98.3,110,111,99.7,92.4,81,4.82,4.04,2.42,95.4,102,105,107,104,90.6,93.4,81.9,6.68,4.98,2.21
Cc1ccccc1N1C(=O)c2cc([S+](N)(=O)[O-])c(Cl)cc2NC1C (stereo unspecified),134,121,119,132,125,125,109,120,119,103,110,122,121,131,129,137,134,130,124,109,98.3,129,,,,,,,,,,,
NC(=O)c1cnc(N[C@@H]2CCCC[C@@H]2N)nc1Nc1cccc(-n2nccn2)c1,111,117,126,124,122,132,136,128,123,133,77.6,,,,,,,,,,,,,,,,,,,,,,
CC(=O)N(C)c1cccc(-c2ccnc3c(C(=O)c4cccs4)cnn23)c1,103,115,109,101,108,110,99.8,120,103,99.3,94.5,106,96.8,88.5,80.9,102,101,107,90.5,95.8,88.1,90.2,105,98.7,105,88,93.9,103,107,89.7,95,90.3,92
COC1=CC=CC=C1C2=CC=CC(=C2)C/3=C(O)/C4=CC(=C(Cl)C=C4NC3=O)C#N,98.4,106,111,114,107,112,109,92.8,10.2,6.7,10.6,99.3,110,107,116,123,115,114,106,64.3,4.25,5.71,95.2,99.1,105,105,99.6,101,110,94,45.5,5.98,6.01
Cn1c(=O)c2c(ncn2C)n(C)c1=O.O=C(O)CC(O)(CC(=O)O)C(=O)O,108,106,112,111,111,113,105,105,96.8,101,93.1,116,119,126,126,121,117,115,116,120,110,107,106,114,110,111,110,109,105,114,113,106,96.3
COc1cccc2cc(-c3nc(C4CCC(C(=O)O)CC4)n4ncnc(N)c34)[nH]c12 (stereo unspecified),111,117,120,112,91.3,98.6,21,14.3,13.8,14.2,24.5,109,116,114,99.9,89,91.4,67.8,18.7,13.8,13.4,12.6,115,123,112,119,89.6,93.3,70.2,26.5,23.2,20.1,22.3
C=C(C)[C@@H]1CC[C@]2(C(=O)O)CC[C@]3(C)[C@H](CC[C@@H]4[C@@]5(C)CC[C@H](O)C(C)(C)[C@@H]5CC[C@]43C)[C@@H]12,111,123,120,114,116,111,109,103,99.9,99.1,97.3,108,116,114,109,116,107,119,106,97.8,98.5,103,114,121,120,110,108,102,111,100,95.1,94.3,87.3
